Values joined by “and” are separate entries in the source; they are usually repeats but may differ in a detail not shown here. Equal values may be shown once. Where a name gives a salt, the structure may show the parent alone. Marks after values point to notes of the source that are not given here.
Tests used:
[1] = test system: scopolamine-treated cynomolgus monkeys; experiment: Scopolamine-induced impairment of vsPAL task performance, treatment + scopolamine; assay type: in vivo, cynomolgus monkeys (Macaca Fasicularis); settings: for scopolamine impairment: difference between vehicle+vehicle and vehicle+scopolamine, % correct eventual: 4-stimuli condition; for Percent Correct on Initial Attempt (SEM), 2 stimuli / Percent Correct on Initial Attempt (SEM), 3 stimuli / Percent Correct on Initial Attempt (SEM), 4 stimuli: Vehicle + Scopolamine; for mean (cohen's d calculations): eventual correct, 4-stimuli
Method: Doses cited refer to the free base form of the compounds. […] All drugs were administered intramuscularly (i.m.) in a dosing volume of 0.1–0.2 ml/kg.
On days when compound testing occurred, approximately half the cohort received one dose and the remainder another dose of the same compound and therefore dose order was staggered between animals. With the exception of EVP-6124, all other compounds were tested in a single dose response study.
Cohen’s d values of >0.2, >0.5 and >0.8 are described using the conventions of small, medium, and large effects, respectively.

[2] = test system: cynomolgus monkeys; experiment: Scopolamine dose-response on CANTAB vsPAL task performance
Excerpt: Thirteen experimentally naïve male cynomolgus monkeys (Macaca Fasicularis; 3–5 years of age; 5.0–7.5 kg at the beginning of the study) served as subjects. Subjects were housed in pairs, separated during testing (Monday through Friday) and re-paired after feeding in the afternoon. Subjects were fed standard monkey chow (Harlan Teklad Global 20% protein Primate Diet 2050) in sufficient quantities to ensure normal growth while maintaining sufficient motivation to perform the cognitive testing [30]. Water was continuously available except during behavioral testing. Fresh fruit, toys and foraging devices were routinely provided in the monkey colony rooms.
For behavioral testing subjects were seated comfortably in restraint chairs (Primate Products, Immokalee, FL), and placed in individual, sound attenuated chambers (Med-Associates, St. Albans, VT), equipped with lights, a white noise generator and a monitoring camera. A touch-sensitive computer monitor was within easy reach and session events were controlled by a Monkey CANTAB test station; (Lafayette Instruments, Lafayette, IN) and Whisker Control [45]. Following correct responses, a dispenser delivered 190 mg banana-flavored pellets (Bioserv, Frenchtown PA).
Ten subjects were trained to perform the CANTAB vsPAL test as previously described [38, 46]. Briefly, the test required the animal to associate a stimulus (abstract shape) with a given spatial location on the computer screen (one of the four corners; S1 Fig). Ten trials each of increasing difficulty (2-, 3- or 4- stimuli) were presented. Trials began with the ‘sample phase’ where stimuli are presented and touched sequentially in their respective locations with a 1 sec delay between stimuli. Following 5 sec where the screen was blank, the choice phase began. The same stimulus was presented in all four corners of the screen for all difficulty levels. […] After a 1 sec screen blank another stimulus was presented in all four corners. If the animal touched the correct location for all shapes in the choice phase on the first attempt the trial was recorded as ‘correct on the initial attempt’. […] The same trial could be repeated up to 5 additional times.
If the animal learned the sequence by the 6th attempt, the trial was recorded as ‘eventual correct’, or ‘incorrect’ if not. […] Additional measures were the percent completion (the proportion of trials on which both sample and choice responses were made), and response latency (time from sample onset to the screen touch in the choice phase, averaged across difficulty conditions).
Drug testing was conducted on Mondays and Thursdays. An additional baseline session was conducted on Tuesdays. […] Additional animals were included in later studies as their performance improved.
There was a washout period of at least 2 weeks between studies.
Accuracy measures (i.e. percent initially correct and percent eventually correct) were analyzed with repeated measures analysis of variance (RM-ANOVA) with the two within-subject factors of difficulty (mean of number of stimuli per trial and overall mean) and treatment. Latencies to respond in all choice phases and percent task completed for the entire session were analyzed by one way RM ANOVA. […] Statistical tests were performed using OriginPro v 9.1 (OriginLab Co., Northampton, MA). Missing data were filled with the mean of the respective cell to enable RM ANOVA computation.

[3] = Average Individualized Scopolamine (0.0045-0.0067 mg/kg) + Vehicle, individual animals
[4] = Average Individualized Scopolamine + Vehicle, MEAN of 8 animals
[5] = Average Individualized Scopolamine + Vehicle, group MEAN
[6] = Average Individualized Scopolamine + Vehicle, group MEAN of 6 animals
[7] = EVP DRC 2, Average Individualized Scopolamine + Vehicle, group MEAN of 7 animals
[8] = Scopolamine 0.003 mg/kg, i.m., MEAN
[9] = Scopolamine 0.003 mg/kg, i.m., individual animals
[10] = Scopolamine 0.0056 mg/kg, i.m., MEAN
[11] = Scopolamine 0.0056 mg/kg, i.m., individual animals
[12] = Scopolamine 0.01 mg/kg i.m., MEAN
[13] = Scopolamine 0.01 mg/kg i.m., individual animals

SMILES: CN1[C@@H]2C[C@@H](OC(=O)[C@H](CO)c3ccccc3)C[C@H]1[C@@H]1O[C@@H]12 [Scopolamine, Scopolamine HCl]
- scopolamine impairment: difference between vehicle+vehicle and vehicle+scopolamine, % correct eventual ([1]; donepezil study): 49.4%
- scopolamine impairment: difference between vehicle+vehicle and vehicle+scopolamine, % correct eventual ([1]; first EVP-6124 study): 20.5%
- % Completion [1, 3]: 57.3% and 62.4% and 94.5% and 85.3% and 87.0% and 81.6%
- Average Response Latency [1, 3]: 1943.4 ms and 2791.5 ms and 2008.6 ms and 2389.3 ms and 2808.7 ms and 2502.8 ms
- Eventual Correct, 2 Stimuli [1, 3]: 90.0% and 100.0% and 95.0% and 97.5%
- Eventual Correct, 3 Stimuli [1, 3]: 65.7% and 66.7% and 90.0%
- Eventual Correct, 4 Stimuli [1, 3]: 36.7% and 32.2% and 47.1% and 63.3% and 32.5% and 69.2%
- Eventual Correct, Overall Mean % Correct [1, 3]: 66.2% and 66.3% and 73.2% and 84.4% and 71.7% and 85.6%
- Initial Correct, 3 Stimuli [1, 3]: 40.0% and 47.5% and 30.0% and 42.5% and 60.0%
- Initial Correct, 4 Stimuli [1, 3]: 16.7% and 22.5% and 20.0%
- Initial Correct, Overall Mean % Correct [1, 3]: 53.1% and 56.9% and 66.9%
- Initial correct, 2 Stimuli [1, 3]: 60.0% and 95.0% and 70.0% and 87.5%
- Average Response Latency (Avg Rsp Lat) [1, 4]: 2342.3 ms
- Eventual Correct, 2 Stimuli [1, 4]: 98.1%
- Eventual Correct, 4 Stimuli [1, 4]: 50.3%
- Eventual Correct, Overall Mean % Correct [1, 4]: 76.1%
- Initial Correct, 3 Stimuli [1, 4]: 46.2%
- Initial Correct, 4 Stimuli [1, 4]: 19.5%
- Initial correct, 2 Stimuli [1, 4]: 84.3%
- % Completion [1, 5]: 83.8%
- Average Response Latency (Avg rsp lat) [1, 5]: 1934.6 ms
- Eventual Correct, 2 Stimuli [1, 5]: 99.7%
- Eventual Correct, 3 Stimuli [1, 5]: 98.0%
- Eventual Correct, Overall Mean % Correct [1, 5]: 92.3%
- Initial Correct, 3 Stimuli [1, 5]: 70.0%
- Initial Correct, Overall Mean % Correct [1, 5]: 65.4%
- Initial correct, 2 Stimuli [1, 5]: 87.2%
- % Completion [1, 6]: 78.0%
- Average Response Latency [1, 6]: 2407.4 ms
- Eventual Correct, 2 Stimuli [1, 6]: 97.1%
- Eventual Correct, 4 Stimuli [1, 6]: 46.8%
- Eventual Correct, Overall Mean % Correct [1, 6]: 74.6%
- Initial Correct, 3 Stimuli [1, 6]: 49.2%
- Average Response Latency (Avg rsp lat) [1, 7]: 2021.60 ms
- Eventual Correct, 2 Stimuli [1, 7]: 99.5%
- Eventual Correct, 3 Stimuli [1, 7]: 95.7%
- Eventual Correct, 4 Stimuli [1, 7]: 65.7%
- Eventual Correct, Overall Mean % Correct [1, 7]: 87.7%
- Initial Correct, 3 Stimuli [1, 7]: 66.2%
- Initial Correct, 4 Stimuli [1, 7]: 34.6%
- Initial Correct, Overall Mean % Correct [1, 7]: 64.9%
- Initial correct, 2 Stimuli [1, 7]: 91.9%
- Percent Correct on Initial Attempt (SEM), 2 stimuli ([1]; BMS-933043 study): 89.6% (1.8%)
- Percent Correct on Initial Attempt (SEM), 3 stimuli ([1]; BMS-933043 study): 67.0% (5.0%)
- Percent Correct on Initial Attempt (SEM), 4 stimuli ([1]; BMS-933043 study): 37.3% (7.4%) ††
- Percent Correct on Initial Attempt (SEM), 2 stimuli ([1]; EVP-6124 study 1): 87.3% (4.0%)
- Percent Correct on Initial Attempt (SEM), 3 stimuli ([1]; EVP-6124 study 1): 70.0% (3.4%) ††
- Percent Correct on Initial Attempt (SEM), 4 stimuli ([1]; EVP-6124 study 1): 38.8% (4.0%) ††
- Percent Correct on Initial Attempt (SEM), 2 stimuli ([1]; EVP-6124 study 2): 91.9% (3.6%)
- Percent Correct on Initial Attempt (SEM), 3 stimuli ([1]; EVP-6124 study 2): 66.2% (7.6%) †
- Percent Correct on Initial Attempt (SEM), 4 stimuli ([1]; EVP-6124 study 2): 34.6% (4.2%) ††
- Percent Correct on Initial Attempt (SEM), 2 stimuli ([1]; RG3487 study): 84.3% (2.8%)
- Percent Correct on Initial Attempt (SEM), 3 stimuli ([1]; RG3487 study): 46.2% (8.0%) ††
- Percent Correct on Initial Attempt (SEM), 4 stimuli ([1]; RG3487 study): 19.5% (4.9%) ††
- Percent Correct on Initial Attempt (SEM), 2 stimuli ([1]; donepezil study): 79.6% (5.3%)
- Percent Correct on Initial Attempt (SEM), 3 stimuli ([1]; donepezil study): 49.2% (6.5%) †
- Percent Correct on Initial Attempt (SEM), 4 stimuli ([1]; donepezil study): 25.8% (4.5%) ††
- mean (cohen's d calculations) ([1]; scop+vehicle, donepezil study): 46.8
- mean (cohen's d calculations) ([1]; veh+scop, BMS-933043 study): 65.7
- mean (cohen's d calculations) ([1]; vehicle+scop, EVP-6124 study 2): 65.7
- Eventual Correct, 2 Stimuli [2, 8]: 100.0%
- Eventual Correct, 3 Stimuli [2, 8]: 100.0%
- Eventual Correct, 4 Stimuli [2, 8]: 90.0%
- Eventual Correct, Overall Mean % Correct [2, 8]: 96.7%
- Initial Correct, 3 Stimuli [2, 8]: 68.7%
- Initial Correct, 4 Stimuli [2, 8]: 57.5%
- Initial Correct, Overall Mean % Correct [2, 8]: 74.2%
- Initial correct, 2 Stimuli [2, 8]: 96.3%
- % Completion [2, 9]: 63.0% and 97.0% and 100.0% and 84.0%
- Average Response Latency, ms (Avg Rsp Lat) [2, 9]: 6153.3 ms and 1831.0 ms and 1549.1 ms and 1787.2 ms and 2129.2 ms and 2342.9 ms and 2289.1 ms and 1548.2 ms
- Eventual Correct, 2 Stimuli [2, 9]: 100.0%
- Eventual Correct, 3 Stimuli [2, 9]: 100.0%
- Eventual Correct, 4 Stimuli [2, 9]: 90.0% and 100.0%
- Eventual Correct, Overall Mean % Correct [2, 9]: 93.3% and 96.7% and 100.0%
- Initial Correct, 3 Stimuli [2, 9]: 70.0% and 100.0% and 40.0% and 60.0%
- Initial Correct, 4 Stimuli [2, 9]: 30.0% and 70.0% and 100.0% and 50.0% and 60.0%
- Initial Correct, Overall Mean % Correct [2, 9]: 63.3% and 100.0% and 73.3% and 66.7% and 70.0% and 76.7%
- Initial correct, 2 Stimuli [2, 9]: 90.0% and 100.0%
- Eventual Correct, 2 Stimuli [2, 10]: 95.0%
- Eventual Correct, 3 Stimuli [2, 10]: 84.3%
- Eventual Correct, 4 Stimuli [2, 10]: 51.1%
- Eventual Correct, Overall Mean % Correct [2, 10]: 76.8%
- Initial Correct, 3 Stimuli [2, 10]: 54.3%
- Initial Correct, 4 Stimuli [2, 10]: 32.8%
- % Completion [2, 11]: 21.0% and 62.0% and 51.0% and 97.0% and 88.0% and 91.0% and 34.5%
- Average Response Latency, ms (Avg Rsp Lat) [2, 11]: 1881.3 ms and 2302.7 ms and 2706.5 ms and 2004.6 ms and 2231.8 ms and 2896.7 ms and 2108.4 ms and 1817.8 ms
- Eventual Correct, 2 Stimuli [2, 11]: 60.0% and 100.0%
- Eventual Correct, 3 Stimuli [2, 11]: 100.0% and 50.0% and 90.0% and 70.0%
- Eventual Correct, 4 Stimuli [2, 11]: 50.0% and 16.7% and 70.0% and 0.0% and 90.0%
- Eventual Correct, Overall Mean % Correct [2, 11]: 83.3% and 55.6% and 86.7% and 90.0% and 56.7% and 96.7%
- Initial Correct, 3 Stimuli [2, 11]: 70.0% and 40.0% and 20.0% and 60.0% and 50.0%
- Initial Correct, 4 Stimuli [2, 11]: 30.0% and 16.7% and 50.0% and 0.0% and 60.0%
- Initial Correct, Overall Mean % Correct [2, 11]: 26.0% and 63.3% and 76.7% and 53.3%
- Initial correct, 2 Stimuli [2, 11]: 50.0% and 90.0% and 100.0%
- Eventual Correct, 2 Stimuli [2, 12]: 96.3%
- Eventual Correct, 4 Stimuli [2, 12]: 36.8%
- Eventual Correct, Overall Mean % Correct [2, 12]: 68.5%
- Initial Correct, 3 Stimuli [2, 12]: 47.8%
- Initial Correct, 4 Stimuli [2, 12]: 20.1%
- % Completion [2, 13]: 63.6% and 78.0% and 52.6% and 100.0% and 43.5% and 50.8% and 31.0%
- Average Response Latency, ms (Avg Rsp Lat) [2, 13]: 3290.4 ms and 1872.3 ms and 1904.8 ms and 2135.7 ms and 2272.7 ms and 2295.1 ms and 2067.4 ms and 1369.7 ms
- Eventual Correct, 2 Stimuli [2, 13]: 100.0% and 90.0% and 80.0%
- Eventual Correct, 3 Stimuli [2, 13]: 100.0% and 60.0% and 90.0% and 14.3%
- Eventual Correct, 4 Stimuli [2, 13]: 44.4% and 25.0% and 0.0%
- Eventual Correct, Overall Mean % Correct [2, 13]: 81.5% and 75.0% and 53.3% and 89.3%
- Initial Correct, 3 Stimuli [2, 13]: 50.0% and 70.0% and 90.0% and 30.0% and 0.0% and 12.5%
- Initial Correct, 4 Stimuli [2, 13]: 33.3% and 25.0% and 0.0% and 22.2%
- Initial Correct, Overall Mean % Correct [2, 13]: 68.3% and 36.7% and 60.7% and 26.7% and 20.9% and 53.4%
- Initial correct, 2 Stimuli [2, 13]: 90.0% and 60.0% and 30.0%

Source: paper PMC5736175, “Nicotinic alpha 7 receptor agonists EVP-6124 and BMS-933043, attenuate scopolamine-induced deficits in visuo-spatial paired associates learning” (PLoS ONE, 2017)
